For one experiment, the system named is Staphylococcus aureus. Description: Color change observation after spraying on bacterial liquid (Staphylococcus aureus). Particulars: detection of S. aureus; statement in the discussion. In kind it is cell-based.
In another experiment the test system is E. coli. Briefly: Color change observation after spraying on bacterial liquid (E. coli). In kind it is cell-based. The conditions noted are these: detection of E. coli; statement in the discussion. How it is done:
100 μL of a bacterial liquid (E. coli, […]) was added dropwise onto a slide glass. Then, a sample solution (organic dye composition) of each of Examples and Comparative Examples was placed in a spray bottle (φ39×147 mm, capacity 100 ml), and sprayed (one push) to the bacterial liquid on the slide glass. Thereafter, after leaving for 15 minutes, the following fluorescence observation and color change observation were performed. • Fluorescence observation (visual visibility)
For fluorescence observation, the sprayed part was irradiated with an LED light (530 nm output, color: green), and visual observation was performed through a red filter. The evaluation criteria were as follows. • good: Emission of the solution can be clearly visually recognized • fair: Emission of the solution can be visually recognized but very weak • poor: Emission of the solution cannot be visually recognized • Color change • Color change was visually observed and evaluated according to the following criteria: • good: Color change of the solution can be clearly visually recognized • fair: Color change of the solution can be visually recognized but very weak • poor: Color change of the solution cannot be visually recognized or no color change occurs

As for `CC(C)COC(=O)Oc1ccc2nc3ccc(=O)cc-3oc2c1` [Formula (4)], the “color change, compared with the dye represented by Formula (2)” value in the experiment with Staphylococcus aureus and with E. coli was “more clearly visually recognized” in each case.

(Values after patent US20250154358A1, “ORGANIC DYE COMPOSITION, AND SPRAY AGENT COMPRISING SAME” (PANASONIC INTELLECTUAL PROPERTY MANAGEMENT CO., LTD., priority 2022, published 2025).)
